# Assays:
# [1] = biological target: D2 receptor (Rattus norvegicus, UniProt P61169); experiment: Hypothermia in rats; assay type: in vivo; conditions: for Induction of hypothermia: compound alone
# [2] = biological target: T1, D3 receptor (Rattus norvegicus, UniProt P19020); assay type: in vivo; conditions: rats
# [3] = Aqueous solubility; assay type: physicochemical
# [4] = biological target: T1, D3 receptor; experiment: D3 receptor binding assay, [3H]PD128907, rat brain; conditions: for Fold less potent than 6 at the D3 receptor: relative to compound 6
# D2 receptor, sequence (P61169 whole entry): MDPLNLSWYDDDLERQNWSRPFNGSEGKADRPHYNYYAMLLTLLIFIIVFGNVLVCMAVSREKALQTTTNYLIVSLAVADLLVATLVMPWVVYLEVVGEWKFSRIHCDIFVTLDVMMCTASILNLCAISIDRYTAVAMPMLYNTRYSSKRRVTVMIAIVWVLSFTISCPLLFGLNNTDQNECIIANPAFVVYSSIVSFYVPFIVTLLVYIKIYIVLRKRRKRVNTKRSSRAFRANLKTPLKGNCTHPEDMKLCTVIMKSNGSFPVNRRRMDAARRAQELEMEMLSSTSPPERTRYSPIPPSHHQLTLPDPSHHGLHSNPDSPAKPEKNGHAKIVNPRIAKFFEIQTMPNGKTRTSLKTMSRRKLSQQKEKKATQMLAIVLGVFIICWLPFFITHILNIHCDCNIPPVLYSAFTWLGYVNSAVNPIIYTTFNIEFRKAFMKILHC
# T1 sequence (P19020 whole entry): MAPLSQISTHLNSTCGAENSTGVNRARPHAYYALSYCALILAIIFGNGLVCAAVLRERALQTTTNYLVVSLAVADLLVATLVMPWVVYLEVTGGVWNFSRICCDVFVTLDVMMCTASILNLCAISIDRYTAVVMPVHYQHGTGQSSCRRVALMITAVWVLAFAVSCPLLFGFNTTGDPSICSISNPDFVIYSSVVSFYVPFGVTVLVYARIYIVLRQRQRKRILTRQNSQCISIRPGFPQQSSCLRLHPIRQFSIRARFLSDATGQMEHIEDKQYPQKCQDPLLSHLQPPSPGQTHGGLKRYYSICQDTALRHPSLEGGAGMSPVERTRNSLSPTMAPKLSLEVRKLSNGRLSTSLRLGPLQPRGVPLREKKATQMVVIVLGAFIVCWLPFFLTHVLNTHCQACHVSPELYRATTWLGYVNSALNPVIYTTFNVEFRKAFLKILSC
SMILES,Induction of hypothermia [1],Aqueous solubility (in words) [3],other results
"CCCN[C@H]1CCc2nc(N)sc2C1 [Compound 1, pramipexole, reference compound]",induction of hypothermia occurring at higher doses,,"Induction of yawning ([2]; compound alone, dose-response): increases in yawning were observed over low doses (0.01 to 0.1 mg/kg); In vivo functional profile at D3 and D2 receptors ([2]; concluded from yawning and hypothermia assays): preferential D3 agonist in vivo and a D2 agonist at higher doses"
"COc1ccc2c(c1)CC[C@@H]1CN(CC[C@H]3CC[C@H](NC(=O)c4ccc5ccccc5c4)CC3)CCN21 [Compound 4, reference compound]",,poor aqueous solubility,"Selectivity D1-like/D3 ([4]; ratio of Ki values): >5000 fold; Selectivity D2-like/D3 ([4]; ratio of Ki values, high affinity D2 component where 2-site fit): >1000 fold"
CCCN(CCCCNC(=O)c1ccc2ccccc2c1)[C@H]1CCc2nc(N)sc2C1 [Compound 5],hypothermia was induced by 5 at higher doses,good aqueous solubility,
CCCN(CC[C@H]1CC[C@H](NC(=O)c2ccc3ccccc3c2)CC1)[C@H]1CCc2nc(N)sc2C1.Cl.Cl [Compound 6],failed to induce changes in body temperature over the initial hour of observation,good aqueous solubility,
CC(C)CCN(CC[C@H]1CC[C@H](NC(=O)c2ccc3ccccc3c2)CC1)[C@H]1CCc2nc(N)sc2C1 [Compound 8],,,Fold less potent than 6 at the D3 receptor [4]: 5 times
Nc1nc2c(s1)C[C@@H](NCC[C@H]1CC[C@H](NC(=O)c3ccc4ccccc4c3)CC1)CC2 [Compound 10],,,Fold less potent than 6 at the D3 receptor [4]: 19 times
CCCN(CC[C@H]1CC[C@H](NC(=O)/C=C/c2ccccc2)CC1)[C@H]1CCc2nc(N)sc2C1 [Compound 12],failed to induce changes in body temperature over the initial hour of observation,good aqueous solubility,Effect on compound 1-induced hypothermia ([1]; pretreatment with 12): failed to alter the induction of hypothermia by 1

# — publication PMC2662387 (Journal of medicinal chemistry, 2008)
